Measured values from the NIST ThermoML archive (doi:10.1021/je301282p).
Numbers after ± are expanded uncertainties.

Key:
[1] = 308.15 K, Drop volume
[2] = xn = mol fraction of the nth substance listed; conditions: 308.15 K, Drop volume

COC(=O)OC [dimethyl carbonate] showed a surface tension liquid-gas [1] of 26.55 ± 0.23 mN/m.
Work on CCCCCCCC [octane] yielded a surface tension liquid-gas [1] of 19.9 ± 0.2 mN/m.
CCCCCCCCCC [decane] showed a surface tension liquid-gas [1] of 22.1 ± 0.21 mN/m.
For Cc1ccc(C)cc1 [1,4-dimethylbenzene], the surface tension liquid-gas [1] was 26.29 ± 0.23 mN/m.
In the case of CCOC(=O)OCC [diethyl carbonate], the surface tension liquid-gas [1] is reported as 24.02 ± 0.19 mN/m.
Molecule CCOC(=O)OCC [diethyl carbonate] + Cc1ccc(C)cc1 has a surface tension liquid-gas ([2]; x1 = 0.0995) of 25.98 ± 0.27 mN/m, a surface tension liquid-gas ([2]; x1 = 0.2009) of 25.68 ± 0.27 mN/m and a surface tension liquid-gas ([2]; x1 = 0.2985) of 25.42 ± 0.26 mN/m. The surface tension liquid-gas ([2]; x1 = 0.3971) was 25.18 ± 0.26 mN/m, the surface tension liquid-gas ([2]; x1 = 0.4956) was 24.94 ± 0.26 mN/m and the surface tension liquid-gas ([2]; x1 = 0.5433) was 24.83 ± 0.26 mN/m. It also gave a surface tension liquid-gas ([2]; x1 = 0.6007) of 24.7 ± 0.25 mN/m, a surface tension liquid-gas ([2]; x1 = 0.6457) of 24.6 ± 0.25 mN/m and a surface tension liquid-gas ([2]; x1 = 0.6995) of 24.49 ± 0.25 mN/m. It also gave a surface tension liquid-gas ([2]; x1 = 0.7986) of 24.3 ± 0.25 mN/m, a surface tension liquid-gas ([2]; x1 = 0.899) of 24.12 ± 0.25 mN/m and a surface tension liquid-gas ([2]; x1 = 0.9497) of 24.06 ± 0.25 mN/m.
Work on CCCCCCCCCC [decane] + COC(=O)OC yielded a surface tension liquid-gas ([2]; x2 = 0.0512) of 21.95 ± 0.26 mN/m, a surface tension liquid-gas ([2]; x2 = 0.09) of 21.92 ± 0.26 mN/m and a surface tension liquid-gas ([2]; x2 = 0.2006) of 21.9 ± 0.26 mN/m. The surface tension liquid-gas ([2]; x2 = 0.2853) was 21.92 ± 0.26 mN/m, the surface tension liquid-gas ([2]; x2 = 0.3971) was 21.97 ± 0.26 mN/m and the surface tension liquid-gas ([2]; x2 = 0.4949) was 22.11 ± 0.26 mN/m. For the same molecule, the surface tension liquid-gas ([2]; x2 = 0.5987) was 22.01 ± 0.26 mN/m, the surface tension liquid-gas ([2]; x2 = 0.6988) was 22.18 ± 0.26 mN/m and the surface tension liquid-gas ([2]; x2 = 0.7971) was 22.54 ± 0.26 mN/m. The surface tension liquid-gas ([2]; x2 = 0.8983) was 23.81 ± 0.27 mN/m and the surface tension liquid-gas ([2]; x2 = 0.9505) was 24.82 ± 0.27 mN/m.
Cc1ccc(C)cc1 [1,4-dimethylbenzene] + CCCCCCCC gave a surface tension liquid-gas ([2]; x1 = 0.0488) of 20.02 ± 0.24 mN/m, a surface tension liquid-gas ([2]; x1 = 0.109) of 20.25 ± 0.24 mN/m and a surface tension liquid-gas ([2]; x1 = 0.1953) of 20.52 ± 0.24 mN/m. For the same molecule, the surface tension liquid-gas ([2]; x1 = 0.2973) was 20.96 ± 0.24 mN/m, the surface tension liquid-gas ([2]; x1 = 0.3959) was 21.41 ± 0.25 mN/m and the surface tension liquid-gas ([2]; x1 = 0.4978) was 21.91 ± 0.25 mN/m. It also gave a surface tension liquid-gas ([2]; x1 = 0.5503) of 22.2 ± 0.25 mN/m, a surface tension liquid-gas ([2]; x1 = 0.5935) of 22.46 ± 0.25 mN/m and a surface tension liquid-gas ([2]; x1 = 0.6966) of 23.11 ± 0.26 mN/m. It also gave a surface tension liquid-gas ([2]; x1 = 0.8004) of 23.93 ± 0.26 mN/m, a surface tension liquid-gas ([2]; x1 = 0.9017) of 24.92 ± 0.27 mN/m and a surface tension liquid-gas ([2]; x1 = 0.9504) of 25.5 ± 0.27 mN/m.
Molecule CCOC(=O)OCC [diethyl carbonate] + CCCCCCCC has a surface tension liquid-gas ([2]; x1 = 0.049) of 19.83 ± 0.24 mN/m, a surface tension liquid-gas ([2]; x1 = 0.1008) of 19.89 ± 0.24 mN/m and a surface tension liquid-gas ([2]; x1 = 0.2) of 19.91 ± 0.24 mN/m. For the same molecule, the surface tension liquid-gas ([2]; x1 = 0.2969) was 20.05 ± 0.24 mN/m, the surface tension liquid-gas ([2]; x1 = 0.3972) was 20.26 ± 0.24 mN/m and the surface tension liquid-gas ([2]; x1 = 0.4971) was 20.5 ± 0.24 mN/m. The surface tension liquid-gas ([2]; x1 = 0.5495) was 20.63 ± 0.24 mN/m, the surface tension liquid-gas ([2]; x1 = 0.5991) was 20.79 ± 0.24 mN/m and the surface tension liquid-gas ([2]; x1 = 0.695) was 21.16 ± 0.24 mN/m. It also gave a surface tension liquid-gas ([2]; x1 = 0.7938) of 21.7 ± 0.24 mN/m, a surface tension liquid-gas ([2]; x1 = 0.8978) of 22.63 ± 0.24 mN/m and a surface tension liquid-gas ([2]; x1 = 0.9504) of 23.33 ± 0.24 mN/m.
With COC(=O)OC [dimethyl carbonate] + CCCCCCCC the surface tension liquid-gas ([2]; x1 = 0.0503) was 19.8 ± 0.24 mN/m, the surface tension liquid-gas ([2]; x1 = 0.0976) was 19.78 ± 0.24 mN/m and the surface tension liquid-gas ([2]; x1 = 0.196) was 19.85 ± 0.24 mN/m. The surface tension liquid-gas ([2]; x1 = 0.2941) was 19.93 ± 0.24 mN/m, the surface tension liquid-gas ([2]; x1 = 0.3969) was 20.09 ± 0.24 mN/m and the surface tension liquid-gas ([2]; x1 = 0.495) was 20.25 ± 0.25 mN/m. For the same molecule, the surface tension liquid-gas ([2]; x1 = 0.5455) was 20.39 ± 0.25 mN/m, the surface tension liquid-gas ([2]; x1 = 0.5971) was 20.54 ± 0.25 mN/m and the surface tension liquid-gas ([2]; x1 = 0.6977) was 20.8 ± 0.25 mN/m. For the same molecule, the surface tension liquid-gas ([2]; x1 = 0.7977) was 21.47 ± 0.25 mN/m, the surface tension liquid-gas ([2]; x1 = 0.8983) was 23.04 ± 0.26 mN/m and the surface tension liquid-gas ([2]; x1 = 0.9492) was 24.53 ± 0.27 mN/m.
With Cc1ccc(C)cc1 [1,4-dimethylbenzene] + CCCCCCCCCC the surface tension liquid-gas ([2]; x1 = 0.1047) was 22.18 ± 0.26 mN/m, the surface tension liquid-gas ([2]; x1 = 0.2152) was 22.39 ± 0.26 mN/m and the surface tension liquid-gas ([2]; x1 = 0.2977) was 22.57 ± 0.26 mN/m. The surface tension liquid-gas ([2]; x1 = 0.3945) was 22.79 ± 0.26 mN/m, the surface tension liquid-gas ([2]; x1 = 0.4993) was 23.11 ± 0.26 mN/m and the surface tension liquid-gas ([2]; x1 = 0.549) was 23.28 ± 0.26 mN/m. The surface tension liquid-gas ([2]; x1 = 0.5997) was 23.46 ± 0.27 mN/m, the surface tension liquid-gas ([2]; x1 = 0.7004) was 23.88 ± 0.27 mN/m and the surface tension liquid-gas ([2]; x1 = 0.8018) was 24.47 ± 0.27 mN/m. For the same molecule, the surface tension liquid-gas ([2]; x1 = 0.9004) was 25.2 ± 0.27 mN/m and the surface tension liquid-gas ([2]; x1 = 0.9501) was 25.67 ± 0.27 mN/m.
With CCOC(=O)OCC [diethyl carbonate] + CCCCCCCCCC the surface tension liquid-gas ([2]; x1 = 0.0512) was 21.9 ± 0.26 mN/m, the surface tension liquid-gas ([2]; x1 = 0.0983) was 21.84 ± 0.26 mN/m and the surface tension liquid-gas ([2]; x1 = 0.1997) was 21.75 ± 0.26 mN/m. For the same molecule, the surface tension liquid-gas ([2]; x1 = 0.2968) was 21.78 ± 0.25 mN/m, the surface tension liquid-gas ([2]; x1 = 0.406) was 21.84 ± 0.25 mN/m and the surface tension liquid-gas ([2]; x1 = 0.499) was 21.88 ± 0.25 mN/m. The surface tension liquid-gas ([2]; x1 = 0.5621) was 21.96 ± 0.25 mN/m, the surface tension liquid-gas ([2]; x1 = 0.5994) was 21.99 ± 0.25 mN/m and the surface tension liquid-gas ([2]; x1 = 0.6966) was 22.19 ± 0.25 mN/m. It also gave a surface tension liquid-gas ([2]; x1 = 0.7951) of 22.49 ± 0.25 mN/m, a surface tension liquid-gas ([2]; x1 = 0.9018) of 23.1 ± 0.25 mN/m and a surface tension liquid-gas ([2]; x1 = 0.9511) of 23.5 ± 0.25 mN/m.
With Cc1ccc(C)cc1 [1,4-dimethylbenzene] + COC(=O)OC the surface tension liquid-gas ([2]; x2 = 0.0503) was 26.19 ± 0.27 mN/m, the surface tension liquid-gas ([2]; x2 = 0.1937) was 25.97 ± 0.27 mN/m and the surface tension liquid-gas ([2]; x2 = 0.2988) was 25.84 ± 0.27 mN/m. It also gave a surface tension liquid-gas ([2]; x2 = 0.4013) of 25.76 ± 0.27 mN/m, a surface tension liquid-gas ([2]; x2 = 0.5016) of 25.7 ± 0.27 mN/m and a surface tension liquid-gas ([2]; x2 = 0.6032) of 25.67 ± 0.27 mN/m. It also gave a surface tension liquid-gas ([2]; x2 = 0.7029) of 25.67 ± 0.27 mN/m, a surface tension liquid-gas ([2]; x2 = 0.7964) of 25.74 ± 0.27 mN/m and a surface tension liquid-gas ([2]; x2 = 0.8945) of 25.98 ± 0.27 mN/m. For the same molecule, the surface tension liquid-gas ([2]; x2 = 0.9442) was 26.13 ± 0.27 mN/m.
